According to patent US20060030497A1, “Conveyor track or container lubricant compositions” (priority 2004, published 2006):

Assay: Spreading test: drop on a polybutene surface in a Petri dish, compared with water
Assay type: physicochemical
Conditions: water containing 0.1% by weight of spreading agent; drop of 50μ on polybutene; pure water about 10 mm
Source text: Compositions of the present invention have the advantage that they spread more efficiently and completely on polymeric conveyor surfaces than previously known conveyor lubricant compositions containing polydimethylsiloxane. […] When the lubricant is applied to a polymeric conveyor surface, the conveyor surface soon becomes very hydrophobic due to the adsorption and/or absorption of the silicone oil lubricant on the surface. The lubricant persists on the surface so that it presents a very hydrophobic surface to subsequently applied lubricant. The lubricants of the present invention readily wet the oil soaked silicone lubricant surface as evidenced by the lubricants rapidly spreading on the surface without beading. […]
A useful test to determine the spreading ratios of the lubricants of the present invention is to compare spreading on a standard polybutene surface in a Petri dish. In this test, a drop of 50μ of the composition to be measured is applied to a polybutene surface in a Petri dish and after 30 seconds the linear movement of the liquid is measured by taking the average diameter of the substantially circular liquid. Pure water has been measured to have a diameter of about 10 mm. […]
The compositions prepared above were diluted at a ratio of 1 part lubricant to 200 parts water. […] The spreading ratio of the lubricant was measured using the test as described above. […]

movement of the drop (average diameter of the liquid) after 30 seconds: 110 mm
Substance: heptamethyl trisiloxane with a hydroxy terminated polyethyleneoxide pendant group [Silwet® L-7608]
